This is an account of results in patent US9079866B2, “Flap modulators” (JANSSEN PHARMACEUTICA NV, priority 2013, dated 2015).

Broadly, the Ki is the equilibrium dissociation constant of an inhibitor or competing ligand from its target. A word on the IC50: it is the concentration at which inhibition is half-maximal.

One assay concerns the target human FLAP (Homo sapiens (Human), UniProt P20292). Description: FLAP binding assay (HTRF format). As to conditions: human FLAP wild type, HTRF format; average of two plates, duplicates. The method, boiled down: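 HTRF ratio read-out; two independent plates, samples in duplicate on each, values averaged across plates.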
A general note: In TR-FRET formats the signal depends on donor and acceptor labels being close together.

Assay [1] has as its system leukotriene pathway in human whole blood (LTB4 levels). Description: Human whole blood assay (A23187-stimulated LTB4). The following applies: Homo sapiens, human whole blood diluted 1:1 in RPMI, A23187-stimulated LTB4; read-out: LTB4 IC50 1:1. The assay is classed as cell-based. The method, boiled down: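 Single-replicate data from at least one healthy donor: compound pre-incubated 15 min at 37° Celsius in 1:1 RPMI-diluted heparinised blood, followed by 30 min calcium ionophore A23187 (7 μg/mL) challenge at 37° Celsius. LTB4 in plasma quantified by kit; IC50 via 4-parameter equation.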

Chain of human FLAP (P20292 whole entry): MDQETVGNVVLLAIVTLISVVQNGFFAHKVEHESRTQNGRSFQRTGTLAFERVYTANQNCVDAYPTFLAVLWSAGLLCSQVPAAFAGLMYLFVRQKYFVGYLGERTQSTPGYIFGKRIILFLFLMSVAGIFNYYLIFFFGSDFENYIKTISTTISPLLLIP

For `Nc1cnc(-c2ccc(-c3ccccc3S(=O)(=O)N3CCNC(=O)C3)cc2F)cn1` [Example 66, 4-{[4′-(5-Aminopyrazin-2-yl)-3′-fluorobiphenyl-2-yl]sulfonyl}piperazin-2-one], at human FLAP, the Ki was 21 nM. In assay [1], the half-maximal inhibitory concentration (IC50) is 69 nM.
The compound `Nc1cnc(-c2ccc(-c3ccccc3S(=O)(=O)N3CCC(O)CC3)cc2F)cn1` [Example 67, 1-{[4′-(5-Aminopyrazin-2-yl)-3′-fluorobiphenyl-2-yl]sulfonyl}piperidin-4-ol] showed a Ki at human FLAP of 3 nM. In addition, in assay [1], the 50% inhibitory concentration (IC50) is 12 nM.
Consider `Nc1cnc(-c2ccc(-c3ccccc3S(=O)(=O)N3CCC(CO)CC3)cc2F)cn1` [Example 68, (1-{[4′-(5-Aminopyrazin-2-yl)-3′-fluorobiphenyl-2-yl]sulfonyl}piperidin-4-yl)methanol], for which the Ki on human FLAP was 1 nM. The IC50 in assay [1] is 6 nM.
`Nc1cnc(-c2ccc(-c3ccccc3S(=O)(=O)N3CCC(CCO)CC3)cc2F)cn1` [Example 69, 2-(1-{[4′-(5-Aminopyrazin-2-yl)-3′-fluorobiphenyl-2-yl]sulfonyl}piperidin-4-yl)ethanol]: the Ki at human FLAP was 1 nM. Also, the IC50 in assay [1] turned out to be 8 nM.
The corresponding values for `CNC1CCN(S(=O)(=O)c2ccccc2-c2ccc(-c3cnc(N)cn3)c(F)c2)CC1` [Example 72, 5-(3-Fluoro-2′-{[4-(methylamino)piperidin-1-yl]sulfonyl}biphenyl-4-yl)pyrazin-2-amine] are 111 nM and 168 nM.
In the case of `CN(C)C1CCN(S(=O)(=O)c2ccccc2-c2ccc(-c3cnc(N)cn3)c(F)c2)CC1` [Example 73, 5-(2′-{[4-(Dimethylamino)piperidin-1-yl]sulfonyl}-3-fluorobiphenyl-4-yl)pyrazin-2-amine], the inhibitory constant (Ki) on human FLAP was found to be 62 nM. In addition, the IC50 in assay [1] was 77 nM.
On to `CC(=O)NC1CCN(S(=O)(=O)c2ccccc2-c2ccc(-c3cnc(N)cn3)c(F)c2)CC1` [Example 75, N-(1-{[4′-(5-Aminopyrazin-2-yl)-3′-fluorobiphenyl-2-yl]sulfonyl}piperidin-4-yl)acetamide], for which, at human FLAP, the inhibition constant Ki came to 12 nM. The IC50 in assay [1] was found to be 185 nM.
On to `Nc1cnc(-c2ccc(-c3ccccc3S(=O)(=O)N[C@@H](CO)[C@@H](O)c3ccccc3)cc2F)cn1` [Example 78, 4′-(5-Aminopyrazin-2-yl)-3′-fluoro-N-[(1S,2S)-2-hydroxy-1-(hydroxymethyl)-2-phenylethyl]biphenyl-2-sulfonamide], for which affinity at human FLAP was put at a Ki of 1 nM. Besides, in assay [1], the IC50 came out at 166 nM.
Regarding `CC(C)C[C@@H](CO)NS(=O)(=O)c1ccccc1-c1ccc(-c2cnc(N)cn2)c(F)c1` [Example 79, 4′-(5-Aminopyrazin-2-yl)-3′-fluoro-N-[(1S)-1-(hydroxymethyl)-3-methylbutyl]biphenyl-2-sulfonamide], the Ki at human FLAP is 5 nM. Moreover, the 50% inhibitory concentration (IC50) in assay [1] is 150 nM.
The compound `Nc1cnc(-c2ccc(-c3ccccc3S(=O)(=O)N[C@H](CO)c3ccccc3)cc2F)cn1` [Example 81, 4′-(5-Aminopyrazin-2-yl)-3′-fluoro-N-[(1S)-2-hydroxy-1-phenylethyl]biphenyl-2-sulfonamide] had an inhibition constant Ki at human FLAP of 6 nM. Further, the half-maximal inhibitory concentration (IC50) in assay [1] came out at 152 nM.
`Nc1cnc(-c2ccc(-c3ccccc3S(=O)(=O)N[C@@H](CO)c3ccccc3)cc2F)cn1` [Example 82, 4′-(5-Aminopyrazin-2-yl)-3′-fluoro-N-[(1R)-2-hydroxy-1-phenylethyl]biphenyl-2-sulfonamide] yielded a Ki on human FLAP of 1 nM. In assay [1], the 50% inhibitory concentration (IC50) was determined as 18 nM.
The matching figures for `CC[C@H](C)[C@@H](CO)NS(=O)(=O)c1ccccc1-c1ccc(-c2cnc(N)cn2)c(F)c1` [Example 84, 4′-(5-Aminopyrazin-2-yl)-3′-fluoro-N-[(1S,2S)-1-(hydroxymethyl)-2-methylbutyl]biphenyl-2-sulfonamide]: 3 nM and 97 nM.
`Nc1cnc(-c2ccc(-c3ccccc3S(=O)(=O)N[C@@H]3CCCC[C@H]3O)cc2F)cn1` [Example 85, 4′-(5-Aminopyrazin-2-yl)-3′-fluoro-N-[(1R,2R)-2-hydroxycyclohexyl]biphenyl-2-sulfonamide] had a Ki at human FLAP of 2 nM. The IC50 in assay [1] stood at 20 nM.
`CC[C@H](CO)NS(=O)(=O)c1ccccc1-c1ccc(-c2cnc(N)cn2)c(F)c1` [Example 86, 4′-(5-Aminopyrazin-2-yl)-3′-fluoro-N-[(1R)-1-(hydroxymethyl)propyl]biphenyl-2-sulfonamide]: the affinity on human FLAP, expressed as Ki, was 3 nM. Further, the IC50 in assay [1] stood at 27 nM.
In the case of `Nc1cnc(-c2ccc(-c3ccccc3S(=O)(=O)N[C@@H]3CCCC[C@@H]3O)cc2F)cn1` [Example 87, 4′-(5-Aminopyrazin-2-yl)-3′-fluoro-N-[(1R,2S)-2-hydroxycyclohexyl]biphenyl-2-sulfonamide], the inhibition constant (Ki) on human FLAP was 3 nM. For the same compound, in assay [1], the half-maximal inhibitory concentration (IC50) came out at 75 nM.
Turning to `Nc1cnc(-c2ccc(-c3ccccc3S(=O)(=O)NCCO)cc2F)cn1` [Example 88, 4′-(5-Aminopyrazin-2-yl)-3′-fluoro-N-(2-hydroxyethyl)biphenyl-2-sulfonamide], the inhibitory constant (Ki) at human FLAP turned out to be 7 nM. In assay [1], the IC50 came out at 36 nM.
The matching figures for `Nc1cnc(-c2ccc(-c3ccccc3S(=O)(=O)NC3CC3)cc2F)cn1` [Example 89, 4′-(5-Aminopyrazin-2-yl)-N-cyclopropyl-3′-fluorobiphenyl-2-sulfonamide]: 6 nM and 43 nM.
The matching figures for `Nc1cnc(-c2ccc(-c3ccccc3S(=O)(=O)NCC3CC3)cc2F)cn1` [Example 90, 4′-(5-Aminopyrazin-2-yl)-N-(cyclopropylmethyl)-3′-fluorobiphenyl-2-sulfonamide]: 1 nM and 12 nM.
The corresponding values for `Nc1cnc(-c2ccc(-c3ccccc3S(=O)(=O)N3CCC[C@@H]3CO)cc2F)cn1` [Example 91, (R)-(1-((4′-(5-Aminopyrazin-2-yl)-3′-fluoro-[1,1′-biphenyl]-2-yl)sulfonyl)pyrrolidin-2-yl)methanol] are 5 nM and 28 nM.
Turning to `Nc1cnc(-c2ccc(-c3ccccc3S(=O)(=O)N3CCC[C@H]3CO)cc2F)cn1` [Example 95, (S)-(1-((4′-(5-Aminopyrazin-2-yl)-3′-fluoro-[1,1′-biphenyl]-2-yl)sulfonyl)pyrrolidin-2-yl)methanol], the affinity at human FLAP, expressed as Ki, was 10 nM. Moreover, in assay [1], the IC50 is 53 nM.
The matching figures for `C[C@@H](O)CNS(=O)(=O)c1ccccc1-c1ccc(-c2cnc(N)cn2)c(F)c1` [Example 97, (R)-4′-(5-aminopyrazin-2-yl)-3′-fluoro-N-(2-hydroxypropyl)-[1,1′-biphenyl]-2-sulfonamide]: 8 nM and 42 nM.
`C[C@H](O)CNS(=O)(=O)c1ccccc1-c1ccc(-c2cnc(N)cn2)c(F)c1` [Example 98, (S)-4′-(5-aminopyrazin-2-yl)-3′-fluoro-N-(2-hydroxypropyl)-[1,1′-biphenyl]-2-sulfonamide] came in with an inhibition constant (Ki) at human FLAP of 8 nM. In addition, the IC50 in assay [1] amounted to 39 nM.
The compound `Nc1cnc(-c2ccc(-c3ccccc3S(=O)(=O)NCC3(O)CCCCC3)cc2F)cn1` [Example 99, 4′-(5-Aminopyrazin-2-yl)-3′-fluoro-N-[(1-hydroxycyclohexyl)methyl]biphenyl-2-sulfonamide] displayed a Ki at human FLAP of 2 nM. Moreover, the concentration for half-maximal inhibition (IC50) in assay [1] was determined as 30 nM.
`CC(C)(CO)NS(=O)(=O)c1ccccc1-c1ccc(-c2cnc(N)cn2)c(F)c1` [Example 100, 4′-(5-Aminopyrazin-2-yl)-3′-fluoro-N-(2-hydroxy-1,1-dimethylethyl)biphenyl-2-sulfonamide]: at human FLAP, the Ki stood at 1 nM. Moreover, the IC50 in assay [1] amounted to 24 nM.
For the compound `CC(C)(O)CNS(=O)(=O)c1ccccc1-c1ccc(-c2cnc(N)cn2)c(F)c1` [Example 101, 4′-(5-Aminopyrazin-2-yl)-3′-fluoro-N-(2-hydroxy-2-methylpropyl)biphenyl-2-sulfonamide], the Ki at human FLAP was determined as 2 nM. The IC50 in assay [1] came out at 14 nM.
Turning to `Nc1cnc(-c2ccc(-c3ccccc3S(=O)(=O)NC[C@H](O)CO)cc2F)cn1` [Example 104, (S)-4′-(5-Aminopyrazin-2-yl)-N-(2,3-dihydroxypropyl)-3′-fluoro-[1,1′-biphenyl]-2-sulfonamide], the inhibitory constant (Ki) at human FLAP was 12 nM. Further, in assay [1], the half-maximal inhibitory concentration (IC50) was > 1000 nM.
`Nc1cnc(-c2ccc(-c3ccccc3S(=O)(=O)NC[C@@H](O)CO)cc2F)cn1` [Example 105, (R)-4′-(5-Aminopyrazin-2-yl)-N-(2,3-dihydroxypropyl)-3′-fluoro-[1,1′-biphenyl]-2-sulfonamide] came in with a Ki at human FLAP of 25 nM. In addition, in assay [1], the IC50 turned out to be 481 nM.
Consider `Nc1cnc(-c2ccc(-c3ccccc3S(=O)(=O)N[C@H]3CCNC3=O)cc2F)cn1` [Example 107, (S)-4′-(5-Aminopyrazin-2-yl)-3′-fluoro-N-(2-oxopyrrolidin-3-yl)-[1,1′-biphenyl]-2-sulfonamide], for which the Ki on human FLAP worked out at 16 nM. Also, the IC50 in assay [1] is 132 nM.
`Nc1cnc(-c2ccc(-c3ccccc3S(=O)(=O)N[C@H]3CCCNC3=O)cc2F)cn1` [Example 108, (S)-4′-(5-Aminopyrazin-2-yl)-3′-fluoro-N-(2-oxopiperidin-3-yl)-[1,1′-biphenyl]-2-sulfonamide] registered an inhibitory constant (Ki) at human FLAP of 10 nM. Also, in assay [1], the concentration for half-maximal inhibition (IC50) was 49 nM.
On to `CC(C)[C@H](CO)NS(=O)(=O)c1ccccc1-c1ccc(-c2cnc(N)cn2)c(F)c1` [Example 109, (R)-4′-(5-Aminopyrazin-2-yl)-3′-fluoro-N-[1-(hydroxymethyl)-2-methylpropyl]biphenyl-2-sulfonamide], for which, at human FLAP, the inhibition constant Ki stood at 1 nM. Further, the IC50 in assay [1] is 18 nM.
The matching figures for `Nc1cnc(-c2ccc(-c3ccccc3S(=O)(=O)N[C@H]3CC[C@H](O)CC3)cc2F)cn1` [Example 110, 4′-(5-Aminopyrazin-2-yl)-3′-fluoro-N-(4-hydroxycyclohexyl)biphenyl-2-sulfonamide]: 3 nM and 29 nM.
